# Measurements reported in PMC9776540, “Therapeutic Potential of a Water-Soluble Silver-Diclofenac Coordination Polymer on 3D Pancreatic Cancer Spheroids” (Journal of Medicinal Chemistry, 2022).
# Counter-ions that a name gives are not always drawn.
# Legend:
# A549 [1] = assay: MTT cytotoxicity assay (IC50); format: cell-based, human; details: Homo sapiens; A549, after 72 h incubation, MTT, vs untreated control cells; read-out: IC50
# Description: (§1) MCF7 cell line (human breast adenocarcinoma, morphology: epithelial-like, ATCC: HTB-22), A549 cell […]
# (§2) keratinocyte, morphology: epidermal, CSL Cell Lines Service GmbH); were cultured in Dulbecco’s Modified Eagle’s Medium (DMEM, Corning) with phenol red, supplemented with 10% fetal bovine serum (FBS) and with 1% streptomycin/penicillin. […]
# (§3) from metastatic site: brain, ATCC: HTB-81) and MCR-5 cell line (primary line of human pulmonary […]
# (§4) 10% fetal bovine serum (FBS). Cultures were incubated at 37 °C under a humidified atmosphere containing 5% CO2. Cells were transferred using a solution containing 0.05% trypsin and 0.5 mM EDTA.
# (§5) All media and other ingredients were purchased from ALAB, Poland.
# (§6) Cytotoxicity was assessed by MTT assay performed according the protocols described elsewhere.S1 In brief, 1×10^4 cells per well, seeded in 96-well flat bottom microtiter plate, were incubated with the tested compounds (in the appropriate media) at various range of concentrations for 24 h. After that time, solutions of compounds were washed out, cells were washed three times with PBS and fresh medium was applied. After next 72 h cell viability was determined using the Hill equation (Origin 9.0) with regard to the untreated cells (control), where y0 – untreated cell control (which was set to 100% viability), y100 – a lysis control (where the cells were treated with 0.5% triton X-100 was set to 0% […]
# (§7) [c] at which the viability of the cells reaches 50%, H – the Hill coefficient (describing cooperativity):
# (§8) Each compound concentration was tested in five replicates and repeated at least three times.
# (§9) Determined values of IC50 are given as mean + S.D. (Standard Deviation).
# (§10) Cisplatin was tested as a reference anticancer drug. […]
# DU-145 [2] = assay: MTT cytotoxicity assay (IC50); format: cell-based, human; details: Homo sapiens; DU-145, after 72 h incubation, MTT, vs untreated control cells; read-out: IC50
# Description: as §1, §2, §3, §4, §5, §6, §7, §8, §9, §10
# HaCat [3] = assay: MTT cytotoxicity assay (IC50); format: cell-based, human; details: Homo sapiens; HaCat normal cells, after 72 h incubation, MTT, vs untreated control cells; read-out: IC50
# Description: as §1, §2, §3, §4, §5, §6, §7, §8, §9, §10
# MCF7 = assay: MTT cytotoxicity assay (IC50); format: cell-based, human; details: Homo sapiens; MCF7, after 72 h incubation, MTT, vs untreated control cells; read-out: IC50
# Description: as §1, §2, §3, §4, §5, §6, §7, §8, §9, §10
# MRC5 = assay: MTT cytotoxicity assay (IC50); format: cell-based, human; details: Homo sapiens; MRC5 normal cells, after 72 h incubation, MTT, vs untreated control cells; read-out: IC50
# Description: as §1, §2, §3, §4, §5, §6, §7, §8, §9, §10
# PANC-1 [4] = assay: MTT cytotoxicity assay (IC50); format: cell-based, human; details: Homo sapiens; PANC-1, after 72 h incubation, MTT, vs untreated control cells; read-out: IC50
# Description: as §1, §2, §3, §4, §5, §6, §7, §8, §9, §10
# A549 [5] = assay: MTT survival test, surviving fraction (Table S3); format: cell-based, human
# Description: (§11) 24, and 72 h. After each incubation time, the cells were washed with PBS. Then, fresh medium (supplemented with 10% FSB) was added, and the cells were incubated under standard conditions for another 24 h (6h + 24h, 24h + 24h, 72h + 24h). After this time, the MTT survival test was done. Surviving fraction given in % was estimated with relation to untreated cells. In the case of 6h + 24h and 24h + 24h approaches, the cells were seeded at 10 000 cells per well, while in the case of 72h + 24h at […]
# DU-145 [6] = assay: MTT survival test, surviving fraction (Table S3); format: cell-based, human
# Description: as §11
# HaCat [7] = assay: MTT survival test, surviving fraction (Table S3); format: cell-based, human
# Description: as §11
# MCF-7 = assay: MTT survival test, surviving fraction (Table S3); format: cell-based, human
# Description: as §11
# PANC-1 [8] = assay: MTT survival test, surviving fraction (Table S3); format: cell-based, human
# Description: as §11
# PANC-1 cells = details: PANC-1, 1 at IC50, others at molar ratio 1:1:1, 72 h after treatment
# Description: as §1, §2, §3, §4
# All media and other ingredients were purchased from ALAB, Poland. […]
# Acridine Orange (OA) and Propidium Iodide PI Staining
# AO is a nucleic acid-binding fluorophore that is cell membrane permeable and suitable for selective staining of nucleated living cells. PI is a nucleic acid-binding dye that is impermeable to live cells and suitable for staining dead or dying nucleated cells. All live, nucleated cells fluoresce green due to AO, and dead, nucleated cells are stained with both AO and PI and fluoresce red. For analysis of 1-induced
# pBR322 plasmid = assay: DNA strand break analysis, agarose gel electrophoresis; format: biochemical; details: pBR322, 24 h, even at high concentration (500 μM)
# Description: Then, the interaction between DNA and diclofenac, PTA, or 1 was evaluated by the gel electrophoresis of pBR322 plasmid to determine an ability to cause double- and/or single-strand DNA damages (Figure 6D). The double-strand damage may result in the appearance of different forms of DNA (linear form III and relaxed form II), which can be quantified by densitometry analysis (Figure 6E).
# DNA Strand Break Analysis
# The ability of 1, PTA and diclofenac to induce single- or double-strand breaks in plasmid DNA was tested
# with the pBR322 plasmid (c = 0.5 mg/mL). All compounds were dissolved in water (c = 1 µM-500 µM).
# After 1 h incubation at 37 °C, the reaction mixtures (20 μL) were mixed with 3 μL of loading buffer
# (bromophenol blue in 30% glycerol) and loaded on 1% agarose gels, containing EB, in TBE buffer (90
# mM Tris–borate, 20 mM EDTA, pH = 8.0). Gel electrophoresis was performed at a constant voltage of
# 100 V (4 V/cm) for 60 min. The gel was photographed and processed with a Digital Imaging System
# (Syngen Biotech). For the densitometric analysis the UltraQuant 6.0 program was used.
# [9] = comparison values, no method or reference printed at the place; cited from earlier work
smiles,measurement,setting,value
"O=C(O)Cc1ccccc1Nc1c(Cl)cccc1Cl [NaDf, diclofenac sodium salt]",IC50,A549 [1],699 ± 7.1 µM
same,IC50,DU-145 [2],803 ± 14.7 µM
same,IC50,HaCat [3],1140 ± 18.3 µM
same,IC50,MCF7,978 ± 10.4 µM
same,IC50,MRC5,977.3 ± 5.9 µM
same,IC50,PANC-1 [4],801 ± 124 µM
same,surviving fraction,"A549 [5]; A549, 6h + 24h, dil. 10 000x (stocks: diclofenac 0.918, PTA 0.483, AgNO3 0.326 mg/mL)",99.7 ± 4.3%
same,surviving fraction,"A549 [5]; A549, 6h + 24h, dil. 100x (stocks: diclofenac 0.918, PTA 0.483, AgNO3 0.326 mg/mL)",72.5 ± 6.8%
same,surviving fraction,"A549 [5]; A549, 6h + 24h, dil. 1000x (stocks: diclofenac 0.918, PTA 0.483, AgNO3 0.326 mg/mL)",88.7 ± 10.8%
same,surviving fraction,"A549 [5]; A549, 24h + 24h, dil. 10 000x (stocks: diclofenac 0.918, PTA 0.483, AgNO3 0.326 mg/mL)",98.5 ± 10.9%
same,surviving fraction,"A549 [5]; A549, 24h + 24h, dil. 100x (stocks: diclofenac 0.918, PTA 0.483, AgNO3 0.326 mg/mL)",70.9 ± 8.9%
same,surviving fraction,"A549 [5]; A549, 24h + 24h, dil. 1000x (stocks: diclofenac 0.918, PTA 0.483, AgNO3 0.326 mg/mL)",81.8 ± 6.8%
same,surviving fraction,"A549 [5]; A549, 72h + 24h, dil. 10 000x (stocks: diclofenac 0.918, PTA 0.483, AgNO3 0.326 mg/mL)",89.5 ± 8.2%
same,surviving fraction,"A549 [5]; A549, 72h + 24h, dil. 100x (stocks: diclofenac 0.918, PTA 0.483, AgNO3 0.326 mg/mL)",67.7 ± 6.5%
same,surviving fraction,"A549 [5]; A549, 72h + 24h, dil. 1000x (stocks: diclofenac 0.918, PTA 0.483, AgNO3 0.326 mg/mL)",78.5 ± 7.6%
same,surviving fraction,"DU-145 [6]; Du-145, 6h + 24h, dil. 10 000x (stocks: diclofenac 0.918, PTA 0.483, AgNO3 0.326 mg/mL)",99.5 ± 8.2%
same,surviving fraction,"DU-145 [6]; Du-145, 6h + 24h, dil. 100x (stocks: diclofenac 0.918, PTA 0.483, AgNO3 0.326 mg/mL)",78.2 ± 5.6%
same,surviving fraction,"DU-145 [6]; Du-145, 6h + 24h, dil. 1000x (stocks: diclofenac 0.918, PTA 0.483, AgNO3 0.326 mg/mL)",87.7 ± 9.8%
same,surviving fraction,"DU-145 [6]; Du-145, 24h + 24h, dil. 10 000x (stocks: diclofenac 0.918, PTA 0.483, AgNO3 0.326 mg/mL)",99.5 ± 10.7%
same,surviving fraction,"DU-145 [6]; Du-145, 24h + 24h, dil. 100x (stocks: diclofenac 0.918, PTA 0.483, AgNO3 0.326 mg/mL)",78.7 ± 7.6%
same,surviving fraction,"DU-145 [6]; Du-145, 24h + 24h, dil. 1000x (stocks: diclofenac 0.918, PTA 0.483, AgNO3 0.326 mg/mL)",88.4 ± 6.7%
same,surviving fraction,"DU-145 [6]; Du-145, 72h + 24h, dil. 10 000x (stocks: diclofenac 0.918, PTA 0.483, AgNO3 0.326 mg/mL)",88.7 ± 6.1%
same,surviving fraction,"DU-145 [6]; Du-145, 72h + 24h, dil. 100x (stocks: diclofenac 0.918, PTA 0.483, AgNO3 0.326 mg/mL)",70.8 ± 7.9%
same,surviving fraction,"DU-145 [6]; Du-145, 72h + 24h, dil. 1000x (stocks: diclofenac 0.918, PTA 0.483, AgNO3 0.326 mg/mL)",71.4 ± 8.5%
same,surviving fraction,"HaCat [7]; 6h + 24h, dil. 10 000x (stocks: diclofenac 0.918, PTA 0.483, AgNO3 0.326 mg/mL)",99.6 ± 10.8%
same,surviving fraction,"HaCat [7]; 6h + 24h, dil. 100x (stocks: diclofenac 0.918, PTA 0.483, AgNO3 0.326 mg/mL)",86.5 ± 11.7%
same,surviving fraction,"HaCat [7]; 6h + 24h, dil. 1000x (stocks: diclofenac 0.918, PTA 0.483, AgNO3 0.326 mg/mL)",92.5 ± 9.1%
same,surviving fraction,"HaCat [7]; 24h + 24h, dil. 10 000x (stocks: diclofenac 0.918, PTA 0.483, AgNO3 0.326 mg/mL)",99.3 ± 12.8%
same,surviving fraction,"HaCat [7]; 24h + 24h, dil. 100x (stocks: diclofenac 0.918, PTA 0.483, AgNO3 0.326 mg/mL)",88.8 ± 5.8%
same,surviving fraction,"HaCat [7]; 24h + 24h, dil. 1000x (stocks: diclofenac 0.918, PTA 0.483, AgNO3 0.326 mg/mL)",99.2 ± 6.8%
same,surviving fraction,"HaCat [7]; 72h + 24h, dil. 10 000x (stocks: diclofenac 0.918, PTA 0.483, AgNO3 0.326 mg/mL)",102.3 ± 11.2%
same,surviving fraction,"HaCat [7]; 72h + 24h, dil. 100x (stocks: diclofenac 0.918, PTA 0.483, AgNO3 0.326 mg/mL)",88.4 ± 5.2%
same,surviving fraction,"HaCat [7]; 72h + 24h, dil. 1000x (stocks: diclofenac 0.918, PTA 0.483, AgNO3 0.326 mg/mL)",99.2 ± 5.9%
same,surviving fraction,"MCF-7; MCF-7, 6h + 24h, dil. 10 000x (stocks: diclofenac 0.918, PTA 0.483, AgNO3 0.326 mg/mL)",102.6 ± 13.4%
same,surviving fraction,"MCF-7; MCF-7, 6h + 24h, dil. 100x (stocks: diclofenac 0.918, PTA 0.483, AgNO3 0.326 mg/mL)",78.6 ± 12.3%
same,surviving fraction,"MCF-7; MCF-7, 6h + 24h, dil. 1000x (stocks: diclofenac 0.918, PTA 0.483, AgNO3 0.326 mg/mL)",89.5 ± 9.8%
same,surviving fraction,"MCF-7; MCF-7, 24h + 24h, dil. 10 000x (stocks: diclofenac 0.918, PTA 0.483, AgNO3 0.326 mg/mL)",98.2 ± 9.8%
same,surviving fraction,"MCF-7; MCF-7, 24h + 24h, dil. 1000x (stocks: diclofenac 0.918, PTA 0.483, AgNO3 0.326 mg/mL)",88.7 ± 10.6%
same,surviving fraction,"MCF-7; MCF-7, 72h + 24h, dil. 10 000x (stocks: diclofenac 0.918, PTA 0.483, AgNO3 0.326 mg/mL)",97.8 ± 7.7%
same,surviving fraction,"MCF-7; MCF-7, 72h + 24h, dil. 1000x (stocks: diclofenac 0.918, PTA 0.483, AgNO3 0.326 mg/mL)",85.4 ± 5.3%
same,surviving fraction,"PANC-1 [8]; PANC-1, 6h + 24h, dil. 10 000x (stocks: diclofenac 0.918, PTA 0.483, AgNO3 0.326 mg/mL)",98.6 ± 7.8%
same,surviving fraction,"PANC-1 [8]; PANC-1, 6h + 24h, dil. 100x (stocks: diclofenac 0.918, PTA 0.483, AgNO3 0.326 mg/mL)",75.3 ± 6.4%
same,surviving fraction,"PANC-1 [8]; PANC-1, 6h + 24h, dil. 1000x (stocks: diclofenac 0.918, PTA 0.483, AgNO3 0.326 mg/mL)",84.5 ± 9.8%
same,surviving fraction,"PANC-1 [8]; PANC-1, 24h + 24h, dil. 10 000x (stocks: diclofenac 0.918, PTA 0.483, AgNO3 0.326 mg/mL)",89.5 ± 9.9%
same,surviving fraction,"PANC-1 [8]; PANC-1, 24h + 24h, dil. 100x (stocks: diclofenac 0.918, PTA 0.483, AgNO3 0.326 mg/mL)",71.2 ± 6.5%
same,surviving fraction,"PANC-1 [8]; PANC-1, 24h + 24h, dil. 1000x (stocks: diclofenac 0.918, PTA 0.483, AgNO3 0.326 mg/mL)",82.4 ± 7.7%
same,surviving fraction,"PANC-1 [8]; PANC-1, 72h + 24h, dil. 10 000x (stocks: diclofenac 0.918, PTA 0.483, AgNO3 0.326 mg/mL)",89.4 ± 6.3%
same,surviving fraction,"PANC-1 [8]; PANC-1, 72h + 24h, dil. 100x (stocks: diclofenac 0.918, PTA 0.483, AgNO3 0.326 mg/mL)",68.5 ± 6.9%
same,surviving fraction,"PANC-1 [8]; PANC-1, 72h + 24h, dil. 1000x (stocks: diclofenac 0.918, PTA 0.483, AgNO3 0.326 mg/mL)",80.3 ± 4.1%
same,cytotoxicity seen by AO/PI staining,PANC-1 cells,did not induce visible cytotoxicity
same,degradation of plasmid DNA,pBR322 plasmid,no degradation of DNA
same,log P,[9],1.4
